In patent US20120230991A1, “METHODS AND COMPOUNDS FOR ENHANCING ANTI-CANCER THERAPY” (priority 2008, published 2012):
pIC50: −log10 of the molar value.

How the values were obtained:
[1] = system: 697 Human B-ALL Cell Lines; assay: MTT assay, chemosensitivity of 697 cells (wild type, shControl, Mer knockdown), 48 hours; assay type: cell-based
Experimental: Inhibition of Mer expression results in increased chemosensitivity in 697 cells. […] IC50 values were determined by non-linear regression of data from at least three independent experiments performed in triplicate, as shown in Table 1.

697 cells = assay: Flow cytometry of apoptotic and dead cells (YO-PRO-1 / propidium iodide), 697 cells; assay type: cell-based, human; settings: 697 shMer1A vs shControl, 48 hours
Experimental: Apoptotic and dead cells were identified by flow cytometric analysis of cells stained with YO-PRO®-1 and propidium iodide: A) representative flow cytometry profiles; B) mean values and standard errors derived from 3 independent experiments.
Cultures of shControl or shMer1A 697 cells were exposed to 6-MP, VP-16, or medium only for 48 hours: A) Apoptotic and dead cells were identified by flow cytometric analysis of cells stained with YO-PRO®-1 and propidium iodide: Representative flow cytometry profiles; B) the percentages of apoptotic and dead cells are indicated in lower-right and upper-right quadrants, respectively. Mean values and standard errors derived from 3 independent experiments. Results were tested for significance using two-way ANOVA and Bonferroni posttests to compare shControl and shMer1A cells at equivalent drug concentrations.

[2] = system: A549 Human NSCLC Cell Lines; assay: BrdU incorporation ELISA, relative cell proliferation of A549 cells, 48 hours; assay type: cell-based; settings: for sensitivity of A549 cells with inhibition of Mer expression: A549 Mer1-G8 knockdown, BrdU; for pIC50: BrdU assay
Experimental: The relative cell proliferation was determined via a BrdU incorporation ELISA. IC50 values were determined by non-linear regression of data from at least three independent experiments performed in triplicate (see Table 3).

G12 astrocytoma cells = assay: MTT assay, chemosensitivity of G12 astrocytoma control and knockdown cells; assay type: cell-based; settings: MTT
Experimental: (§1) G12 control (shControl) and knockdown cells (shMer1 and shMer4; shAxl8 and shAxl9) were plated in 96-well plates at concentrations determined to allow linear growth over 3 days: A) cells were treated with varying concentrations of temozolomide and relative cell number was assessed 48 h after treatment by colorimetric assessment/MTT assay. Error bars denote experiments performed in triplicate. A172 control (shControl) and knockdown cells (shMer1A and shMer1B; shAxl8 and shAxl9) were plated in 96-well plates at concentrations determined to allow linear growth over 3 days: B) cells were treated with varying concentrations of carboplatin and relative cell number was assessed 48 h after treatment by colorimetric assessment/MTT assay. Error bars represent three independent experiments performed in triplicate.
(§2) Table 4 provides the IC50 with 95% CI for G12 and A172 control and Mer and Axl knockdown cells, in response to chemotherapy. In Table 4, ‘NR’ indicates an IC50 was never reached. ‘IND’ represents that that CI was indeterminate. The IC50 for each knockdown line was compared to the control line, and an ‘*’ represents that the comparison is statistically different while an ‘NS’ represents that there was no statistically significant difference because either the CI was indeterminate (as with the G12 shAxl9 line treated with carboplatin) or it overlapped with the shControl CI.

A172 glioblastoma cells = assay: MTT assay, chemosensitivity of A172 control and knockdown cells; assay type: cell-based; settings: MTT
Experimental: as §1, §2

[3] = system: A549 Human NSCLC Cell Lines; assay: Relative cell numbers of A549 cells (wild type, shControl, Axl/Mer knockdown) after 48 hours of drug; assay type: cell-based; settings: for pIC50: 48 hours, relative cell number; for sensitivity of the shAxl9-D3 Axl knockdown clone: A549 shAxl9-D3, 48 hours
A549 cells = assay: Induction of apoptosis / cell death in A549 knockdown cells treated with doxorubicin; assay type: cell-based, human
[4] = 697 shMer1A (Mer knockdown) cells
[5] = 697 shMer1B (Mer knockdown) cells

Sc1ncnc2nc[nH]c12 [6-MP, 6-mercaptopurine]
pIC50 ([1]; 697 Wild Type cells): < 4.19
pIC50 ([1]; 697 shControl cells): < 4.19
pIC50 [1, 4]: 5.54
pIC50 [1, 5]: 5.49
induction of apoptotic cell death with Mer knockdown (697 cells): increased induction of apoptotic cell death

N.N.O=C([O-])C1(C(=O)[O-])CCC1.[Pt+2] [Carbo, carboplatin]
sensitivity of A549 cells with inhibition of Mer expression ([2]; 48 hours): increased sensitivity
pIC50 ([2]; A549 Wild Type, 48 hours): 4.70
pIC50 ([2]; A549 shAxl8-G5, 48 hours): 4.77
pIC50 ([2]; A549 shAxl9-D3, 48 hours): 4.82
pIC50 ([2]; A549 shControl, 48 hours): 4.81
pIC50 ([2]; A549 shMer1-G8, 48 hours): 5.14
pIC50 (G12 astrocytoma cells; G12 shAxl8, 48 h): 6.55
pIC50 (G12 astrocytoma cells; G12 shAxl9, 48 h): 6.70
pIC50 (G12 astrocytoma cells; G12 shControl, 48 h): 4.32
pIC50 (G12 astrocytoma cells; G12 shMer1, 48 h): 6.11
pIC50 (G12 astrocytoma cells; G12 shMer4, 48 h): 6.72
pIC50 (A172 glioblastoma cells; A172 shAxl8, 48 h): 7.46
pIC50 (A172 glioblastoma cells; A172 shAxl9, 48 h): 7.12
pIC50 (A172 glioblastoma cells; A172 shMer1A, 48 h): 6.09
pIC50 (A172 glioblastoma cells; A172 shMer1B, 48 h): 6.68
pIC50 ([3]; A549 Wild Type): < 3.80
pIC50 ([3]; A549 shAxl8-G5 (Axl knockdown)): 5.04
pIC50 ([3]; A549 shControl): < 3.80
pIC50 ([3]; A549 shMer1-G8 (Mer knockdown)): 4.03

N.N.[Cl][Pt][Cl] [Cispl, cisplatin]
pIC50 ([2]; A549 Wild Type, 48 hours): 5.68
pIC50 ([2]; A549 shAxl8-G5, 48 hours): 5.57
pIC50 ([2]; A549 shAxl9-D3, 48 hours): 5.64
pIC50 ([2]; A549 shControl, 48 hours): 5.77
pIC50 ([2]; A549 shMer1-G8, 48 hours): 6.00
pIC50 ([3]; A549 Wild Type): 5.19
pIC50 ([3]; A549 shAxl8-G5 (Axl knockdown)): 6.29
pIC50 ([3]; A549 shAxl9-D3 (Axl knockdown)): 5.47
sensitivity of the shAxl9-D3 Axl knockdown clone [3]: more sensitive
pIC50 ([3]; A549 shControl): 5.07
pIC50 ([3]; A549 shMer1-G8 (Mer knockdown)): 5.52

COc1cccc2c1C(=O)c1c(O)c3c(c(O)c1C2=O)C[C@@](O)(C(=O)CO)C[C@@H]3O[C@H]1C[C@H](N)[C@H](O)[C@H](C)O1 [DOXO, doxorubicin]
sensitivity of A549 cells with inhibition of Mer expression ([2]; 48 hours): increased sensitivity
pIC50 ([2]; Homo sapiens, A549, 48 h, A549 Wild Type, 48 hours): 7.37
pIC50 ([2]; Homo sapiens, A549, 48 h, A549 shAxl8-G5, 48 hours): 7.30
pIC50 ([2]; Homo sapiens, A549, 48 h, A549 shAxl9-D3, 48 hours): 7.48
pIC50 ([2]; Homo sapiens, A549, 48 h, A549 shControl, 48 hours): 7.29
pIC50 ([2]; Homo sapiens, A549, 48 h, A549 shMer1-G8, 48 hours): 7.69
pIC50 ([1]; 697 Wild Type cells): 7.78
pIC50 ([1]; 697 shControl cells): 7.95
pIC50 [1, 4]: 8.55
pIC50 [1, 5]: 8.49
sensitivity of the shAxl9-D3 Axl knockdown clone [3]: more sensitive
pIC50 ([3]; Homo sapiens, A549, 48 h, A549 Wild Type): 7.46
pIC50 ([3]; Homo sapiens, A549, 48 h, A549 shAxl8-G5 (Axl knockdown)): 8.68
pIC50 ([3]; Homo sapiens, A549, 48 h, A549 shAxl9-D3 (Axl knockdown)): 7.89
pIC50 ([3]; Homo sapiens, A549, 48 h, A549 shControl): 7.16
pIC50 ([3]; Homo sapiens, A549, 48 h, A549 shMer1-G8 (Mer knockdown)): 7.15
induction of apoptosis with inhibition of Axl (A549 cells; A549 Axl knockdown vs shControl): increased induction of apoptosis
level of cell death in Mer knockdown cells (A549 cells; A549 Mer knockdown cells, treated vs untreated): did not increase the level of cell death
